pEC50, pIC50: −log10 of the molar value.
What follows are molecules tested on Human immunodeficiency virus 2 (assay: Effective concentration required to inhibit HIV-2 induced cytopathicity in human CEM cell line). Conditions: Human immunodeficiency virus 2, CCRF-CEM.
Format: functional, organism-based

SMILES	pEC50
CNC(=O)Cn1c(=O)c(C)cn([C@@H]2O[C@H](CO[Si](C)(C)C(C)(C)C)[C@@]3(OS(=O)(=O)C=C3N)[C@H]2O[Si](C)(C)C(C)(C)C)c1=O	< 4.30
Cc1cn([C@@H]2O[C@H](CO[Si](C)(C)C(C)(C)C)[C@@]3(OS(=O)(=O)C=C3N)[C@H]2O[Si](C)(C)C(C)(C)C)c(=O)n(CC(=O)OCc2ccccc2)c1=O	< 5.30
Cc1cn([C@@H]2O[C@H](CO[Si](C)(C)C(C)(C)C)[C@@]3(OS(=O)(=O)C=C3N)[C@H]2O[Si](C)(C)C(C)(C)C)c(=O)n(CCCN(C)C)c1=O	< 5.00
Cc1cn([C@@H]2O[C@H](CO[Si](C)(C)C(C)(C)C)[C@@]3(OS(=O)(=O)C=C3N)[C@H]2O[Si](C)(C)C(C)(C)C)c(=O)n(Cc2ccccc2)c1=O	< 4.30
Cc1cn([C@@H]2O[C@H](CO[Si](C)(C)C(C)(C)C)[C@@]3(OS(=O)(=O)C=C3N)[C@H]2O[Si](C)(C)C(C)(C)C)c(=O)n(CCBr)c1=O	< 4.30
Cc1cn([C@@H]2O[C@H](CO[Si](C)(C)C(C)(C)C)[C@@]3(OS(=O)(=O)C=C3N)[C@H]2O[Si](C)(C)C(C)(C)C)c(=O)n(CCCO)c1=O	< 5.70
Cc1cn([C@@H]2O[C@H](CO[Si](C)(C)C(C)(C)C)[C@@]3(OS(=O)(=O)C=C3N)[C@H]2O[Si](C)(C)C(C)(C)C)c(=O)n(CCC[N+](C)(C)C)c1=O.[I-]	< 4.60

These molecules were tested against Human immunodeficiency virus type 1 reverse transcriptase (Human immunodeficiency virus 1, UniProt Q72547) (assay: Inhibitory concentration required to inhibit recombinant HIV-1 reverse transcriptase). Conditions: not given.

SMILES	pIC50
CNC(=O)Cn1c(=O)c(C)cn([C@@H]2O[C@H](CO[Si](C)(C)C(C)(C)C)[C@@]3(OS(=O)(=O)C=C3N)[C@H]2O[Si](C)(C)C(C)(C)C)c1=O	5.51
Cc1cn([C@@H]2O[C@H](CO[Si](C)(C)C(C)(C)C)[C@@]3(OS(=O)(=O)C=C3N)[C@H]2O[Si](C)(C)C(C)(C)C)c(=O)n(CC(=O)OCc2ccccc2)c1=O	< 3.60
Cc1cn([C@@H]2O[C@H](CO[Si](C)(C)C(C)(C)C)[C@@]3(OS(=O)(=O)C=C3N)[C@H]2O[Si](C)(C)C(C)(C)C)c(=O)n(CCCN(C)C)c1=O	5.18
Cc1cn([C@@H]2O[C@H](CO[Si](C)(C)C(C)(C)C)[C@@]3(OS(=O)(=O)C=C3N)[C@H]2O[Si](C)(C)C(C)(C)C)c(=O)n(Cc2ccccc2)c1=O	< 3.30
Cc1cn([C@@H]2O[C@H](CO[Si](C)(C)C(C)(C)C)[C@@]3(OS(=O)(=O)C=C3N)[C@H]2O[Si](C)(C)C(C)(C)C)c(=O)n(CCBr)c1=O	< 3.30
Cc1cn([C@@H]2O[C@H](CO[Si](C)(C)C(C)(C)C)[C@@]3(OS(=O)(=O)C=C3N)[C@H]2O[Si](C)(C)C(C)(C)C)c(=O)n(CCCO)c1=O	5.52
Cc1cn([C@@H]2O[C@H](CO[Si](C)(C)C(C)(C)C)[C@@]3(OS(=O)(=O)C=C3N)[C@H]2O[Si](C)(C)C(C)(C)C)c(=O)n(CCC[N+](C)(C)C)c1=O.[I-]	4.96

The molecules below were run on CCRF-CEM (assay: Ratio of cytostatic concentration to effective concentration in human CEM cell line). Conditions: not given.
Format: functional

SMILES	SI
CNC(=O)Cn1c(=O)c(C)cn([C@@H]2O[C@H](CO[Si](C)(C)C(C)(C)C)[C@@]3(OS(=O)(=O)C=C3N)[C@H]2O[Si](C)(C)C(C)(C)C)c1=O	>=12500
Cc1cn([C@@H]2O[C@H](CO[Si](C)(C)C(C)(C)C)[C@@]3(OS(=O)(=O)C=C3N)[C@H]2O[Si](C)(C)C(C)(C)C)c(=O)n(CC(=O)OCc2ccccc2)c1=O	31
Cc1cn([C@@H]2O[C@H](CO[Si](C)(C)C(C)(C)C)[C@@]3(OS(=O)(=O)C=C3N)[C@H]2O[Si](C)(C)C(C)(C)C)c(=O)n(CCCN(C)C)c1=O	61
Cc1cn([C@@H]2O[C@H](CO[Si](C)(C)C(C)(C)C)[C@@]3(OS(=O)(=O)C=C3N)[C@H]2O[Si](C)(C)C(C)(C)C)c(=O)n(Cc2ccccc2)c1=O	294
Cc1cn([C@@H]2O[C@H](CO[Si](C)(C)C(C)(C)C)[C@@]3(OS(=O)(=O)C=C3N)[C@H]2O[Si](C)(C)C(C)(C)C)c(=O)n(CCBr)c1=O	4300
Cc1cn([C@@H]2O[C@H](CO[Si](C)(C)C(C)(C)C)[C@@]3(OS(=O)(=O)C=C3N)[C@H]2O[Si](C)(C)C(C)(C)C)c(=O)n(CCCO)c1=O	386
Cc1cn([C@@H]2O[C@H](CO[Si](C)(C)C(C)(C)C)[C@@]3(OS(=O)(=O)C=C3N)[C@H]2O[Si](C)(C)C(C)(C)C)c(=O)n(CCC[N+](C)(C)C)c1=O.[I-]	22

The molecules below were run on Human immunodeficiency virus 1 (assay: Effective concentration required to inhibit HIV-1/138K induced cytopathicity in human CEM cell line). Conditions: Human immunodeficiency virus 1, CCRF-CEM.
Format: functional, organism-based

SMILES	pEC50
CNC(=O)Cn1c(=O)c(C)cn([C@@H]2O[C@H](CO[Si](C)(C)C(C)(C)C)[C@@]3(OS(=O)(=O)C=C3N)[C@H]2O[Si](C)(C)C(C)(C)C)c1=O	5.46
Cc1cn([C@@H]2O[C@H](CO[Si](C)(C)C(C)(C)C)[C@@]3(OS(=O)(=O)C=C3N)[C@H]2O[Si](C)(C)C(C)(C)C)c(=O)n(CCCN(C)C)c1=O	< 5.00
Cc1cn([C@@H]2O[C@H](CO[Si](C)(C)C(C)(C)C)[C@@]3(OS(=O)(=O)C=C3N)[C@H]2O[Si](C)(C)C(C)(C)C)c(=O)n(Cc2ccccc2)c1=O	< 4.30
Cc1cn([C@@H]2O[C@H](CO[Si](C)(C)C(C)(C)C)[C@@]3(OS(=O)(=O)C=C3N)[C@H]2O[Si](C)(C)C(C)(C)C)c(=O)n(CCBr)c1=O	< 4.30
Cc1cn([C@@H]2O[C@H](CO[Si](C)(C)C(C)(C)C)[C@@]3(OS(=O)(=O)C=C3N)[C@H]2O[Si](C)(C)C(C)(C)C)c(=O)n(CCC[N+](C)(C)C)c1=O.[I-]	< 4.60

The molecules below were run on Human immunodeficiency virus 2 (assay: Effective concentration required to inhibit HIV-2 induced cytopathicity in human MT-4 cell line). Conditions: Human immunodeficiency virus 2, MT4.
Format: functional, organism-based

SMILES	pEC50
CNC(=O)Cn1c(=O)c(C)cn([C@@H]2O[C@H](CO[Si](C)(C)C(C)(C)C)[C@@]3(OS(=O)(=O)C=C3N)[C@H]2O[Si](C)(C)C(C)(C)C)c1=O	< 3.60
Cc1cn([C@@H]2O[C@H](CO[Si](C)(C)C(C)(C)C)[C@@]3(OS(=O)(=O)C=C3N)[C@H]2O[Si](C)(C)C(C)(C)C)c(=O)n(CC(=O)OCc2ccccc2)c1=O	< 4.57
Cc1cn([C@@H]2O[C@H](CO[Si](C)(C)C(C)(C)C)[C@@]3(OS(=O)(=O)C=C3N)[C@H]2O[Si](C)(C)C(C)(C)C)c(=O)n(CCCN(C)C)c1=O	< 5.00
Cc1cn([C@@H]2O[C@H](CO[Si](C)(C)C(C)(C)C)[C@@]3(OS(=O)(=O)C=C3N)[C@H]2O[Si](C)(C)C(C)(C)C)c(=O)n(Cc2ccccc2)c1=O	< 4.30
Cc1cn([C@@H]2O[C@H](CO[Si](C)(C)C(C)(C)C)[C@@]3(OS(=O)(=O)C=C3N)[C@H]2O[Si](C)(C)C(C)(C)C)c(=O)n(CCBr)c1=O	< 4.30
Cc1cn([C@@H]2O[C@H](CO[Si](C)(C)C(C)(C)C)[C@@]3(OS(=O)(=O)C=C3N)[C@H]2O[Si](C)(C)C(C)(C)C)c(=O)n(CCCO)c1=O	< 5.70
Cc1cn([C@@H]2O[C@H](CO[Si](C)(C)C(C)(C)C)[C@@]3(OS(=O)(=O)C=C3N)[C@H]2O[Si](C)(C)C(C)(C)C)c(=O)n(CCC[N+](C)(C)C)c1=O.[I-]	< 4.60

The molecules below were run on Human immunodeficiency virus 1 (assay: Effective concentration required to inhibit HIV-1 induced cytopathicity in human MT-4 cell line). Conditions: Human immunodeficiency virus 1, MT4.
Format: functional, organism-based

SMILES	pEC50
CNC(=O)Cn1c(=O)c(C)cn([C@@H]2O[C@H](CO[Si](C)(C)C(C)(C)C)[C@@]3(OS(=O)(=O)C=C3N)[C@H]2O[Si](C)(C)C(C)(C)C)c1=O	7.52
Cc1cn([C@@H]2O[C@H](CO[Si](C)(C)C(C)(C)C)[C@@]3(OS(=O)(=O)C=C3N)[C@H]2O[Si](C)(C)C(C)(C)C)c(=O)n(CC(=O)OCc2ccccc2)c1=O	6.27
Cc1cn([C@@H]2O[C@H](CO[Si](C)(C)C(C)(C)C)[C@@]3(OS(=O)(=O)C=C3N)[C@H]2O[Si](C)(C)C(C)(C)C)c(=O)n(CCCN(C)C)c1=O	6.80
Cc1cn([C@@H]2O[C@H](CO[Si](C)(C)C(C)(C)C)[C@@]3(OS(=O)(=O)C=C3N)[C@H]2O[Si](C)(C)C(C)(C)C)c(=O)n(Cc2ccccc2)c1=O	6.33
Cc1cn([C@@H]2O[C@H](CO[Si](C)(C)C(C)(C)C)[C@@]3(OS(=O)(=O)C=C3N)[C@H]2O[Si](C)(C)C(C)(C)C)c(=O)n(CCBr)c1=O	6.77
Cc1cn([C@@H]2O[C@H](CO[Si](C)(C)C(C)(C)C)[C@@]3(OS(=O)(=O)C=C3N)[C@H]2O[Si](C)(C)C(C)(C)C)c(=O)n(CCC[N+](C)(C)C)c1=O.[I-]	5.31

The molecules below were run on Human immunodeficiency virus 1 (assay: Effective concentration required to inhibit HIV-1 induced cytopathicity in human CEM cell line). Conditions: Human immunodeficiency virus 1, CCRF-CEM.
Format: functional, organism-based

SMILES	pEC50
CNC(=O)Cn1c(=O)c(C)cn([C@@H]2O[C@H](CO[Si](C)(C)C(C)(C)C)[C@@]3(OS(=O)(=O)C=C3N)[C@H]2O[Si](C)(C)C(C)(C)C)c1=O	7.70
Cc1cn([C@@H]2O[C@H](CO[Si](C)(C)C(C)(C)C)[C@@]3(OS(=O)(=O)C=C3N)[C@H]2O[Si](C)(C)C(C)(C)C)c(=O)n(CC(=O)OCc2ccccc2)c1=O	6.39
Cc1cn([C@@H]2O[C@H](CO[Si](C)(C)C(C)(C)C)[C@@]3(OS(=O)(=O)C=C3N)[C@H]2O[Si](C)(C)C(C)(C)C)c(=O)n(CCCN(C)C)c1=O	6.77
Cc1cn([C@@H]2O[C@H](CO[Si](C)(C)C(C)(C)C)[C@@]3(OS(=O)(=O)C=C3N)[C@H]2O[Si](C)(C)C(C)(C)C)c(=O)n(Cc2ccccc2)c1=O	6.74
Cc1cn([C@@H]2O[C@H](CO[Si](C)(C)C(C)(C)C)[C@@]3(OS(=O)(=O)C=C3N)[C@H]2O[Si](C)(C)C(C)(C)C)c(=O)n(CCBr)c1=O	7.52
Cc1cn([C@@H]2O[C@H](CO[Si](C)(C)C(C)(C)C)[C@@]3(OS(=O)(=O)C=C3N)[C@H]2O[Si](C)(C)C(C)(C)C)c(=O)n(CCCO)c1=O	8.00
Cc1cn([C@@H]2O[C@H](CO[Si](C)(C)C(C)(C)C)[C@@]3(OS(=O)(=O)C=C3N)[C@H]2O[Si](C)(C)C(C)(C)C)c(=O)n(CCC[N+](C)(C)C)c1=O.[I-]	5.30

These molecules were tested on CCRF-CEM (assay: Cytostatic concentration required to inhibit cell proliferation in human CEM cell line). Conditions: not given.
Format: functional

SMILES	CC50 [µM]
CNC(=O)Cn1c(=O)c(C)cn([C@@H]2O[C@H](CO[Si](C)(C)C(C)(C)C)[C@@]3(OS(=O)(=O)C=C3N)[C@H]2O[Si](C)(C)C(C)(C)C)c1=O	≥ 250
Cc1cn([C@@H]2O[C@H](CO[Si](C)(C)C(C)(C)C)[C@@]3(OS(=O)(=O)C=C3N)[C@H]2O[Si](C)(C)C(C)(C)C)c(=O)n(CC(=O)OCc2ccccc2)c1=O	12.9
Cc1cn([C@@H]2O[C@H](CO[Si](C)(C)C(C)(C)C)[C@@]3(OS(=O)(=O)C=C3N)[C@H]2O[Si](C)(C)C(C)(C)C)c(=O)n(CCCN(C)C)c1=O	10.4
Cc1cn([C@@H]2O[C@H](CO[Si](C)(C)C(C)(C)C)[C@@]3(OS(=O)(=O)C=C3N)[C@H]2O[Si](C)(C)C(C)(C)C)c(=O)n(Cc2ccccc2)c1=O	53
Cc1cn([C@@H]2O[C@H](CO[Si](C)(C)C(C)(C)C)[C@@]3(OS(=O)(=O)C=C3N)[C@H]2O[Si](C)(C)C(C)(C)C)c(=O)n(CCBr)c1=O	129
Cc1cn([C@@H]2O[C@H](CO[Si](C)(C)C(C)(C)C)[C@@]3(OS(=O)(=O)C=C3N)[C@H]2O[Si](C)(C)C(C)(C)C)c(=O)n(CCCO)c1=O	3.86
Cc1cn([C@@H]2O[C@H](CO[Si](C)(C)C(C)(C)C)[C@@]3(OS(=O)(=O)C=C3N)[C@H]2O[Si](C)(C)C(C)(C)C)c(=O)n(CCC[N+](C)(C)C)c1=O.[I-]	110
